Laboratory results from patent publication US20090286866A1, “Double compartment skincare products comprising avermectin/milbemycin compounds” (GALDERMA S.A., priority 2006, published 2009).

Experiments:
[1] = Comparative study of the chemical stability of ivermectin in various excipients; type: physicochemical
From the text: Comparative study of the chemical stability of ivermectin in various excipients.

[2] = Maximum solubility of ivermectin in various excipients; type: physicochemical; conditions: room temperature
Procedure: Study of the maximum solubility of ivermectin at T=1 hour at room temperature in various excipients.

Substance: ivermectin
- Amount after storage at 25° C. for 1 month ([1]; in Benzyl alcohol, 25° C.): 99.01%
- Amount after storage at 40° C. for 1 month ([1]; in Benzyl alcohol, 40° C.): 98.62%
- Amount at T0 ([1]; in Benzyl alcohol, T0): 98.72%
- Amount after storage at 25° C. for 1 month ([1]; in Diisopropyl adipate, 25° C.): 97.19%
- Amount after storage at 40° C. for 1 month ([1]; in Diisopropyl adipate, 40° C.): 96.70%
- Amount at T0 ([1]; in Diisopropyl adipate, T0): 102.5%
- Amount after storage at 25° C. for 1 month ([1]; in Macrogol 15-hydroxystearate, 25° C.): 95.32%
- Amount after storage at 40° C. for 1 month ([1]; in Macrogol 15-hydroxystearate, 40° C.): 71.88%
- Amount at T0 ([1]; in Macrogol 15-hydroxystearate, T0): 98.76%
- Amount after storage at 25° C. for 1 month ([1]; in PPG 15-stearyl ether, 25° C.): 98.61%
- Amount after storage at 40° C. for 1 month ([1]; in PPG 15-stearyl ether, 40° C.): 98.07%
- Amount at T0 ([1]; in PPG 15-stearyl ether, T0): 102.48%
- Amount after storage at 25° C. for 1 month ([1]; in Phenoxyethanol, 25° C.): 97.77%
- Amount after storage at 40° C. for 1 month ([1]; in Phenoxyethanol, 40° C.): 98.56%
- Amount at T0 ([1]; in Phenoxyethanol, T0): 99.42%
- Amount after storage at 25° C. for 1 month ([1]; in Poloxamer 124, 25° C.): 98.19%
- Amount after storage at 40° C. for 1 month ([1]; in Poloxamer 124, 40° C.): 92.34%
- Amount at T0 ([1]; in Poloxamer 124, T0): 98.09%
- Stability of ivermectin (in words) ([1]; in diisopropyl adipate, benzyl alcohol, PPG-15 stearyl ether and phenoxyethanol, at room temperature or at 40° C.): good stability
- Stability of ivermectin (in words) ([1]; in macrogol 15-hydroxystearate and in poloxamer, in particular at 40° C.): less stable
- Maximum solubility ([2]; in Alkyl benzoate, T=1 hour): 1.60 % (m/m)
- Maximum solubility ([2]; in Capric/caprylic triglycerides, T=1 hour): 1.70 % (m/m)
- Maximum solubility ([2]; in Diisopropyl adipate, T=1 hour): 10.40 % (m/m)
- Maximum solubility ([2]; in Dimethyl isosorbide, T=1 hour): 35.20 % (m/m)
- Maximum solubility ([2]; in Ethanol rectapur, T=1 hour): 14.47 % (m/m)
- Maximum solubility ([2]; in Macrogol 15 hydroxystearate, T=1 hour): 10.60 % (m/m)
- Maximum solubility ([2]; in N-Methyl-2-pyrrolidone, T=1 hour): 58.13 % (m/m)
- Maximum solubility ([2]; in Octyl dodecanol, T=1 hour): 2.50 % (m/m)
- Maximum solubility ([2]; in Oleyl alcohol, T=1 hour): 3.48 % (m/m)
- Maximum solubility ([2]; in PEG 400, T=1 hour): 9.14 % (m/m)
- Maximum solubility ([2]; in PPG 15 stearyl ether, T=1 hour): 3.30 % (m/m)
- Maximum solubility ([2]; in Phenoxyethanol, T=1 hour): 15.70 % (m/m)
- Maximum solubility ([2]; in Poloxamer 124, T=1 hour): 7.50 % (m/m)
- Maximum solubility ([2]; in Polysorbate 80, T=1 hour): 10.31 % (m/m)
- Maximum solubility ([2]; in Propylene glycol (PG), T=1 hour): 21.83 % (m/m)
- Maximum solubility ([2]; in Triacetin, T=1 hour): 7.22 % (m/m)
